According to patent US5200506A, “Process for preparing new thymopentin retro-inverso analogs and fragments thereof and the intermediates obtained therein” (Eniricerche S.p.A., priority 1987, dated 1993):
Values belong to the compound of their own block, whether it stands above or below them. Where a SMILES comes first, the peptide text is derived from it.

Key:
[1] = test system: spleen cells of mice incubated with SRBC; test: Plaque forming cells test; format: in vivo
Description: As the in vivo test, the so-called "plaque forming cells" test described by N. Jerne (same reference as above), has been used. The test is carried out incubating spleen cells of mice who had received the test peptides, with SRBC and counting the number of plaques formed. In the actual practice, groups of 3 mice each, received about 1 ng/mouse of test peptide i.p. one hour after the antigen (SRBC) inoculation. Four days after this treatment, the spleen cells are removed and the test is immediately carried out.
The "plaque forming cells" test has been repeated also by treating the test mice with TP5 or with the corresponding retro-inverso analog TP5-RI1-2, three days before antigen (SRBC) injection.

in vitro = settings: human, heparinized human plasma
Description: Incubations are carried out at 37° C., and aliquots (100 μl each) were collected at time intervals, blocked by treatment with 10% trifluoroacetic acid and centrifuged (10,000 rpm)
for 5'. Aliquots from the supernatant were assayed . by chromatography and the concentration of the test peptide at the different times was measured.

immune response = settings: thymectomized mice, preliminary in vivo tests; L.Kisfaludy et al. 1983; cited from earlier work
[2] = T.P.Tischio et al. 1979; cited from earlier work
cord blood cells (CBC) = test: Rosette E formation test with sheep red blood cells; format: cell-based, human; settings: overnight at 37° C.; for % formation of Rosette E: 5% CO2, blank 23; for % of live cells after incubation: 5% CO2, blank 100
Source text: In particular, as the in vitro test, the Rosette E formation test has been performed both on peripheral blood […] (PBMC) and on cord blood cells (CBC). The CBC used give a percentage of Rosette E formation with sheep red blood cells (SRBC) of 20-40%. The test is based on the capability of human T cells of forming Rosette E with SRBC. The assay which has been carried out according to the metodology described by O.G.Bier at al. in Fundamentals of Immunology--Springer-Verlag (1981), consists in the incubation of CBC, with or without the test peptides, overnight at 37° C. in the presence of 5% CO2.

[3] = mice, about 1 ng/mouse i.p. one hour after antigen (SRBC) inoculation, spleen cells four days later, blank 4.62
[4] = mice, about 1 ng/mouse i.p. one hour after antigen (SRBC) inoculation, spleen cells four days later, blank 42.000

Compound: AcOH.multidot.H-gArg-(R,S)mLys-Asp--OH [TP5^(1-3) -RI1-2]
- Log Number of plaques [1, 3]: 4.78
- Number of plaques formed [1, 4]: 63.125

- half-life (in vitro): 32 min
Compound: CC(C)[C@H](NC(=O)[C@H](CC(=O)O)NC(=O)C(CCCCN)C(=O)N[C@@H](N)CCCNC(=N)N)C(=O)N[C@@H](Cc1ccc(O)cc1)C(=O)O (stereo partly drawn) [TP5-RI1-2, AcOH·H-gArg-(R,S)mLys-Asp-Val-Tyr--OH]

Compound: N=C(N)NCCC[C@H](N)C(=O)N[C@@H](CCCCN)C(=O)N[C@@H](CC(=O)O)C(=O)O [TP5^(1-3), H-Arg-Lys-Asp-OH] (H-Arg-Lys-Asp-OH)
- restoration of the immune response (immune response): able to restore the immune response in thymectomized mice
- Log Number of plaques [1, 3]: 4.67
- Number of plaques formed [1, 4]: 48.917

Compound: CC(C)[C@H](NC(=O)[C@H](CC(=O)O)NC(=O)[C@H](CCCCN)NC(=O)[C@@H](N)CCCN=C(N)N)C(=O)N[C@@H](Cc1ccc(O)cc1)C(=O)O [TP5, H-Arg-Lys-Asp-Val-Tyr-OH] (H-RKDVY-OH)
- Log Number of plaques ([1]; mice treated three days before antigen (SRBC) injection, blank 4.64): 4.79
- Number of plaques formed ([1]; mice treated three days before antigen (SRBC) injection, blank 44.000): 62.000
- Log Number of plaques [1, 3]: 4.68
- Number of plaques formed [1, 4]: 48.375
- half-life in serum [2]: approximately 1.5 minute
- % formation of Rosette E (cord blood cells (CBC); 10 ng/ml): 28%
- % of live cells after incubation (cord blood cells (CBC); 10 ng/ml): 65%
- % formation of Rosette E (cord blood cells (CBC); 100 ng/ml): 33%
- % of live cells after incubation (cord blood cells (CBC); 100 ng/ml): 65%
